Measurements taken from patent US11427604B2 (Mindset Pharma Inc., priority 2020, dated 2022).
Several values for one entry are separate records, joined by “and”; a condition that tells them apart may be missing. Equal entries are not always repeated.

Legend:
C57BL/6J mice = assay: Mouse head twitch response (HTR); format: in vivo; settings: for Head Twitch 10 mins, AVG / Head Twitch 20 mins, AVG / Head Twitch 30 mins, AVG / Head Twitch 40 mins, AVG / Head Twitch 50 mins, AVG / Head Twitch 60 mins, AVG / Head Twitch Total, AVG: group mean; for Head Twitch Total, AVG: over 1 h
Description: Data is expressed as mean±SEM. The induction of head twitches elicited by 5-HT2A receptor agonists is believed to represent a behavioural proxy of their psychedelic effects.
The effect of different doses of exemplary compounds of Formula I were evaluated on head-twitch response (HTR) as a behavior-based model of psychedelic activity.
Male, C57BL/6J mice (body weight range 20-30 g) were dosed with the appropriate dose of test article, and following a 1-minute pre-treatment time, placed in individual observation chambers. Animals were visually assessed for the incidence head twitches continuously over a 1 hr period. Head twitches were defined as a rapid jerk of the head which was not elicited by an external tactile stimulus (Corne and Pickering, Psychopharmacologia, 1967, 11(1): 65-78). Each head twitch was individually counted by a trained observer, and the data expressed as the mean+SEM of 6-10 mice per group. Mice were used in a single experiment only.

[1] = Mouse liver microsomes stability with NADPH
Description: The objective of this study was to estimate in vitro metabolic stability of 1-45 in pooled human and male mouse liver microsomes. The concentrations of exemplary compounds in reaction systems were evaluated by LC-MS/MS for estimating the stability in pooled human and male mouse liver microsomes. The in vitro intrinsic clearances of test compounds were determined as well.
A master solution in the “Incubation Plate” containing phosphate buffer, ultra-pure H2O, MgCl2 solution and liver microsomes was made according to Table --. The mixture was pre-warmed at 37° C. water bath for 5 minutes.
40 μL of 10 mM NADPH solution was added to each well. The final concentration of NADPH was 1 mM. The negative control samples were prepared by replacing NADPH with 40 μL of ultra-pure H2O. Samples were prepared in duplicate. Negative controls were prepared in singlet.
The reaction was started with the addition of 4 μL of 200 μM test compounds or control compounds to each master solution to get the final concentration of 2 μM. This study was performed in duplicate.
Aliquots of 50 μL were taken from the reaction solution at 0, 15, 30, 45 and 60 minutes. The reaction solutions were stopped by the addition of 4 volumes of cold methanol with IS (100 nM alprazolam, 200 nM imipramine, 200 nM labetalol and 2 μM ketoprofen). Samples were centrifuged at 3,220 g for 40 minutes. Aliquot of 90 μL of the supernatant was mixed with 90 μL of ultra-pure H2O and then was used for LC-MS/MS analysis.
LC/MS analysis was performed for all samples from this study using a Shimadzu liquid chromatograph separation system equipped with degasser DGU-20A5R; solvent delivery unit LC-30AD; system controller SIL-30AC; column oven CTO-30A; CTC Analytics HTC PAL System. Mass spectrometric analysis was performed using an Triple Quad™ 5500 instrument.
All calculations were carried out using Microsoft Excel. Peak area ratios of test compound to internal standard (listed in the below table) were determined from extracted ion chromatograms.
All calculations were carried out using Microsoft Excel. Peak areas were determined from extracted ion chromatograms. The slope value, k, was determined by linear regression of the natural logarithm of the remaining percentage of the parent drug vs. incubation time curve.
Conversion of the in vitro t1/2 (min) into the in vitro intrinsic clearance (in vitro CLint, in μL/min/mg proteins) was done using the following equation (mean of duplicate determinations):
[formula] […] Results & Discussion

[2H]C([2H])([2H])N(C([2H])([2H])[2H])C([2H])([2H])C([2H])([2H])c1c[nH]c2cccc(O)c12 [Compound I-45, 3-(2-(bis(methyl-d3)amino)ethyl-1,1,2,2-d4)-1H-indol-4-ol]
Head Twitch 10 mins, individual animal (C57BL/6J mice; 0.03 mg/kg SC, animals C1-C6): 0 (2×) and 1 and 3 and 2 (2×)
Head Twitch 20 mins, individual animal (C57BL/6J mice; 0.03 mg/kg SC, animals C1-C6): 0 (5×) and 1
Head Twitch 30 mins, individual animal (C57BL/6J mice; 0.03 mg/kg SC, animals C1-C6): 0
Head Twitch 40 mins, individual animal (C57BL/6J mice; 0.03 mg/kg SC, animals C1-C6): 0
Head Twitch 50 mins, individual animal (C57BL/6J mice; 0.03 mg/kg SC, animals C1-C6): 0 (5×) and 1
Head Twitch 60 mins, individual animal (C57BL/6J mice; 0.03 mg/kg SC, animals C1-C6): 0
Head Twitch Total, individual animal (C57BL/6J mice; 0.03 mg/kg SC, animals C1-C6, over 1 h): 0 and 1 (2×) and 4 and 2 (2×)
Head Twitch 10 mins, AVG (C57BL/6J mice; 0.03 mg/kg SC): 1.3
Head Twitch 20 mins, AVG (C57BL/6J mice; 0.03 mg/kg SC): 0.2
Head Twitch 30 mins, AVG (C57BL/6J mice; 0.03 mg/kg SC): 0.0
Head Twitch 40 mins, AVG (C57BL/6J mice; 0.03 mg/kg SC): 0.0
Head Twitch 50 mins, AVG (C57BL/6J mice; 0.03 mg/kg SC): 0.2
Head Twitch 60 mins, AVG (C57BL/6J mice; 0.03 mg/kg SC): 0.0
Head Twitch Total, AVG (C57BL/6J mice; 0.03 mg/kg SC): 1.7
Head Twitch 10 mins, individual animal (C57BL/6J mice; 0.1 mg/kg SC, animals P1-P10): 3 and 6 and 0 (3×) and 1 (3×) and 2 (2×)
Head Twitch 20 mins, individual animal (C57BL/6J mice; 0.1 mg/kg SC, animals P1-P10): 1 (4×) and 0 (4×) and 2 (2×)
Head Twitch 30 mins, individual animal (C57BL/6J mice; 0.1 mg/kg SC, animals P1-P10): 0 (6×) and 1 (4×)
Head Twitch 40 mins, individual animal (C57BL/6J mice; 0.1 mg/kg SC, animals P1-P10): 1 (2×) and 0 (8×)
Head Twitch 50 mins, individual animal (C57BL/6J mice; 0.1 mg/kg SC, animals P1-P10): 0 (7×) and 2 and 1 (2×)
Head Twitch 60 mins, individual animal (C57BL/6J mice; 0.1 mg/kg SC, animals P1-P10): 0
Head Twitch Total, individual animal (C57BL/6J mice; 0.1 mg/kg SC, animals P1-P10, over 1 h): 5 and 9 and 3 (3×) and 2 (3×) and 1 and 4
Head Twitch 10 mins, AVG (C57BL/6J mice; 0.1 mg/kg SC): 1.6
Head Twitch 20 mins, AVG (C57BL/6J mice; 0.1 mg/kg SC): 0.8
Head Twitch 30 mins, AVG (C57BL/6J mice; 0.1 mg/kg SC): 0.4
Head Twitch 40 mins, AVG (C57BL/6J mice; 0.1 mg/kg SC): 0.2
Head Twitch 50 mins, AVG (C57BL/6J mice; 0.1 mg/kg SC): 0.4
Head Twitch 60 mins, AVG (C57BL/6J mice; 0.1 mg/kg SC): 0.0
Head Twitch Total, AVG (C57BL/6J mice; 0.1 mg/kg SC): 3.4
Head Twitch 10 mins, individual animal (C57BL/6J mice; 0.3 mg/kg SC, animals Q1-Q10): 3 and 1 (4×) and 0 (2×) and 2 (3×)
Head Twitch 20 mins, individual animal (C57BL/6J mice; 0.3 mg/kg SC, animals Q1-Q10): 0 (4×) and 1 (6×)
Head Twitch 30 mins, individual animal (C57BL/6J mice; 0.3 mg/kg SC, animals Q1-Q10): 1 (3×) and 0 (6×) and 3
Head Twitch 40 mins, individual animal (C57BL/6J mice; 0.3 mg/kg SC, animals Q1-Q10): 0 (8×) and 1 and 2
Head Twitch 50 mins, individual animal (C57BL/6J mice; 0.3 mg/kg SC, animals Q1-Q10): 0 (8×) and 1 (2×)
Head Twitch 60 mins, individual animal (C57BL/6J mice; 0.3 mg/kg SC, animals Q1-Q10): 0
Head Twitch Total, individual animal (C57BL/6J mice; 0.3 mg/kg SC, animals Q1-Q10, over 1 h): 4 (4×) and 2 (2×) and 1 and 3 and 6 and 0
Head Twitch 10 mins, AVG (C57BL/6J mice; 0.3 mg/kg SC): 1.3
Head Twitch 20 mins, AVG (C57BL/6J mice; 0.3 mg/kg SC): 0.6
Head Twitch 30 mins, AVG (C57BL/6J mice; 0.3 mg/kg SC): 0.6
Head Twitch 40 mins, AVG (C57BL/6J mice; 0.3 mg/kg SC): 0.3
Head Twitch 50 mins, AVG (C57BL/6J mice; 0.3 mg/kg SC): 0.2
Head Twitch 60 mins, AVG (C57BL/6J mice; 0.3 mg/kg SC): 0.0
Head Twitch Total, AVG (C57BL/6J mice; 0.3 mg/kg SC): 3.0
Head Twitch 10 mins, individual animal (C57BL/6J mice; 1 mg/kg SC, animals R1-R6): 0 and 4 and 1 and 3 (3×)
Head Twitch 20 mins, individual animal (C57BL/6J mice; 1 mg/kg SC, animals R1-R6): 0 (2×) and 2 and 1 and 7 and 8
Head Twitch 30 mins, individual animal (C57BL/6J mice; 1 mg/kg SC, animals R1-R6): 1 (2×) and 0 (3×) and 3
Head Twitch 40 mins, individual animal (C57BL/6J mice; 1 mg/kg SC, animals R1-R6): 0 (4×) and 2 (2×)
Head Twitch 50 mins, individual animal (C57BL/6J mice; 1 mg/kg SC, animals R1-R6): 0
Head Twitch 60 mins, individual animal (C57BL/6J mice; 1 mg/kg SC, animals R1-R6): 0
Head Twitch Total, individual animal (C57BL/6J mice; 1 mg/kg SC, animals R1-R6, over 1 h): 1 and 6 and 2 and 3 and 15 and 14
Head Twitch 10 mins, AVG (C57BL/6J mice; 1 mg/kg SC): 2.3
Head Twitch 20 mins, AVG (C57BL/6J mice; 1 mg/kg SC): 3.0
Head Twitch 30 mins, AVG (C57BL/6J mice; 1 mg/kg SC): 0.8
Head Twitch 40 mins, AVG (C57BL/6J mice; 1 mg/kg SC): 0.7
Head Twitch 50 mins, AVG (C57BL/6J mice; 1 mg/kg SC): 0.0
Head Twitch 60 mins, AVG (C57BL/6J mice; 1 mg/kg SC): 0.0
Head Twitch Total, AVG (C57BL/6J mice; 1 mg/kg SC): 6.8
Head Twitch 10 mins, individual animal (C57BL/6J mice; 3 mg/kg SC, animals S1-S6): 1 (2×) and 3 and 2 and 6 and 0
Head Twitch 20 mins, individual animal (C57BL/6J mice; 3 mg/kg SC, animals S1-S6): 2 (2×) and 1 and 0 and 3 and 5
Head Twitch 30 mins, individual animal (C57BL/6J mice; 3 mg/kg SC, animals S1-S6): 2 (2×) and 1 (3×) and 0
Head Twitch 40 mins, individual animal (C57BL/6J mice; 3 mg/kg SC, animals S1-S6): 2 and 0 (4×) and 3
Head Twitch 50 mins, individual animal (C57BL/6J mice; 3 mg/kg SC, animals S1-S6): 1 (2×) and 0 (4×)
Head Twitch 60 mins, individual animal (C57BL/6J mice; 3 mg/kg SC, animals S1-S6): 0 (5×) and 1
Head Twitch Total, individual animal (C57BL/6J mice; 3 mg/kg SC, animals S1-S6, over 1 h): 8 and 5 and 3 and 4 and 14 and 7
Head Twitch 10 mins, AVG (C57BL/6J mice; 3 mg/kg SC): 2.2
Head Twitch 20 mins, AVG (C57BL/6J mice; 3 mg/kg SC): 2.2
Head Twitch 30 mins, AVG (C57BL/6J mice; 3 mg/kg SC): 1.2
Head Twitch 40 mins, AVG (C57BL/6J mice; 3 mg/kg SC): 0.8
Head Twitch 50 mins, AVG (C57BL/6J mice; 3 mg/kg SC): 0.3
Head Twitch 60 mins, AVG (C57BL/6J mice; 3 mg/kg SC): 0.2
Head Twitch Total, AVG (C57BL/6J mice; 3 mg/kg SC): 6.8
Head Twitch 10 mins, individual animal (C57BL/6J mice; 10 mg/kg SC, animals T1-T6): 3 and 1 (2×) and 0 (3×)
Head Twitch 20 mins, individual animal (C57BL/6J mice; 10 mg/kg SC, animals T1-T6): 1 (2×) and 0 (4×)
Head Twitch 30 mins, individual animal (C57BL/6J mice; 10 mg/kg SC, animals T1-T6): 0
Head Twitch 40 mins, individual animal (C57BL/6J mice; 10 mg/kg SC, animals T1-T6): 0 (4×) and 1 (2×)
Head Twitch 50 mins, individual animal (C57BL/6J mice; 10 mg/kg SC, animals T1-T6): 0
Head Twitch 60 mins, individual animal (C57BL/6J mice; 10 mg/kg SC, animals T1-T6): 0 (5×) and 3
Head Twitch Total, individual animal (C57BL/6J mice; 10 mg/kg SC, animals T1-T6, over 1 h): 4 and 2 and 5 and 0 (2×) and 1
Head Twitch 10 mins, AVG (C57BL/6J mice; 10 mg/kg SC): 0.8
Head Twitch 20 mins, AVG (C57BL/6J mice; 10 mg/kg SC): 0.3
Head Twitch 30 mins, AVG (C57BL/6J mice; 10 mg/kg SC): 0.0
Head Twitch 40 mins, AVG (C57BL/6J mice; 10 mg/kg SC): 0.3
Head Twitch 50 mins, AVG (C57BL/6J mice; 10 mg/kg SC): 0.0
Head Twitch 60 mins, AVG (C57BL/6J mice; 10 mg/kg SC): 0.5
Head Twitch Total, AVG (C57BL/6J mice; 10 mg/kg SC): 2.0
head twitch frequency compared to vehicle control (C57BL/6J mice; 0.3-10 mg/kg SC, measured over 1 h): dose dependent increase
Remaining Percentage (%) after 60 min ([1]; Mouse, with NADPH, 2 μM): 64.91%
half-life at 2 μM ([1]; male, mouse, microsomes): 1.6 h
microsomal CLint at 2 μM ([1]; male, mouse, microsomes): 14.4 µL/min/mg
